Measurements as given in PubChem BioAssay AID330 (DTP/NCI, 2004).
“And” between values parts separate entries of the source, which are not always exact repeats. Equal entries are not always repeated. Inconclusive results and toxic doses are left out.

Test system: P388 leukemia ip, CD2F1 mice, survival T/C
Assay: NCI In Vivo Anticancer Drug Screen. Data for tumor model P388 Leukemia (intraperitoneal) in CD2F1 (CDF1) mice
Conditions: endpoint: median survival time, higher = longer survival
In short: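 Mice carrying the transplanted tumor received test compound or vehicle. Survival was recorded in each group, and the value is the treated-group measurement divided by that of the vehicle-treated control group.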

[1] = dose: 12.5 mg/kg/injection, schedule: Q01DX009 (ip), vehicle: saline with Tween-80
[2] = dose: 25.0 mg/kg/injection, schedule: Q01DX009 (ip), vehicle: saline with Tween-80
[3] = dose: 50.0 mg/kg/injection, schedule: Q01DX009 (ip), vehicle: saline with Tween-80
[4] = dose: 50.0 mg/kg/injection, schedule: Q01DX009 (ip), vehicle: saline
[5] = dose: 100.0 mg/kg/injection, schedule: Q01DX009 (ip), vehicle: saline with Tween-80
[6] = dose: 100.0 mg/kg/injection, schedule: Q01DX009 (ip), vehicle: saline
[7] = dose: 200.0 mg/kg/injection, schedule: Q01DX009 (ip), vehicle: saline with Tween-80
[8] = dose: 200.0 mg/kg/injection, schedule: Q01DX009 (ip), vehicle: saline
[9] = dose: 50.0 mg/kg/injection, schedule: Q01DX009 (ip), vehicle: Klucel (hydroxypropylcellulose) (HPC)
[10] = dose: 100.0 mg/kg/injection, schedule: Q01DX009 (ip), vehicle: Klucel (hydroxypropylcellulose) (HPC)
[11] = dose: 12.5 mg/kg/injection, schedule: Q01DX009 (ip), vehicle: Klucel (hydroxypropylcellulose) (HPC)
[12] = dose: 25.0 mg/kg/injection, schedule: Q01DX009 (ip), vehicle: Klucel (hydroxypropylcellulose) (HPC)
[13] = dose: 50.0 mg/kg/injection, schedule: Q01DX005 (ip), vehicle: saline with Tween-80
[14] = dose: 100.0 mg/kg/injection, schedule: Q01DX005 (ip), vehicle: saline with Tween-80
[15] = dose: 200.0 mg/kg/injection, schedule: Q01DX005 (ip), vehicle: saline with Tween-80
[16] = dose: 60.0 mg/kg/injection, schedule: Q01DX005 (ip), vehicle: Klucel (hydroxypropylcellulose) (HPC)
[17] = dose: 120.0 mg/kg/injection, schedule: Q01DX005 (ip), vehicle: Klucel (hydroxypropylcellulose) (HPC)
[18] = dose: 240.0 mg/kg/injection, schedule: Q01DX005 (ip), vehicle: Klucel (hydroxypropylcellulose) (HPC)
[19] = dose: 12.5 mg/kg/injection, schedule: Q04DX003 (ip), vehicle: saline with Tween-80
[20] = dose: 50.0 mg/kg/injection, schedule: Q04DX003 (ip), vehicle: saline with Tween-80
[21] = dose: 66.0 mg/kg/injection, schedule: Q04DX003 (ip), vehicle: saline with Tween-80
[22] = dose: 100.0 mg/kg/injection, schedule: Q04DX003 (ip), vehicle: saline with Tween-80
[23] = dose: 10.0 mg/kg/injection, schedule: Q01DX009 (ip), vehicle: saline with Tween-80
[24] = dose: 25.0 mg/kg/injection, schedule: Q01DX005 (ip), vehicle: saline with Tween-80
[25] = dose: 6.25 mg/kg/injection, schedule: Q01DX005 (ip), vehicle: saline with Tween-80
[26] = dose: 12.5 mg/kg/injection, schedule: Q01DX005 (ip), vehicle: saline with Tween-80

## Cc1cc(NS(=O)(=O)c2ccc(N=Nc3cc(N=Nc4ccc(S(=O)(=O)Nc5cc(C)nc(C)n5)cc4)c4c(NC(=O)C(Cl)Cl)cccc4c3OC(=O)C(Cl)Cl)cc2)nc(C)n1 (tested in a mixture with another compound)
[1]
  T/C: 113 % of control
[2]
  T/C: 117 % of control
[3]
  T/C: 106 % of control [middle of 4 runs]
[4]
  T/C: 108 % of control [middle of 4 runs]
[5]
  T/C: 99 % of control and 105 % of control and 107 % of control
[6]
  T/C: 111 % of control and 115 % of control and 118 % of control
[7]
  T/C: 91 % of control and 95 % of control
[8]
  T/C: 99 % of control

## [N-]=[N+]=Nc1cccc(Nc2c3ccccc3nc3ccccc23)c1
[9]
  T/C: 98 % of control
[10]
  T/C: 100 % of control
dose: 200.0 mg/kg/injection, schedule: Q01DX009 (ip), vehicle: Klucel (hydroxypropylcellulose) (HPC)
  T/C: 107 % of control

## C/C=C/C#CC#C/C=C/C=C/CC
[11]
  T/C: 104 % of control
[12]
  T/C: 98 % of control
[9]
  T/C: 103 % of control
[10]
  T/C: 98 % of control

## Cc1nn(C)c(=O)[nH]c1=O
[13]
  T/C: 103 % of control
[14]
  T/C: 106 % of control
[15]
  T/C: 106 % of control

## Cc1ccc2c(c1)N=C(Nc1ccccc1)N=S2(C)=O (stereo not given)
[1]
  T/C: 93 % of control
[2]
  T/C: 92 % of control
[3]
  T/C: 117 % of control and 119 % of control
[5]
  T/C: 104 % of control

## COC(=O)C1(CC(=O)c2c(C)[nH]c3ccccc23)NC(=S)NC(=O)C1C#N (stereo not given)
[16]
  T/C: 100 % of control
[17]
  T/C: 100 % of control
[18]
  T/C: 100 % of control

## CC1=CC2C(O)(CC3(COC(=O)/C=C/c4ccccc4)OC3C3C4C(C)(C)C4(OC(=O)/C=C/c4ccccc4)C(OC(=O)/C=C/c4ccccc4)C(C)C32O)C1=O (stereo not given)
dose: 0.2 mg/kg/injection, schedule: Q01DX005 (ip), vehicle: saline + alcohol
  T/C: 100 % of control
dose: 0.4 mg/kg/injection, schedule: Q01DX005 (ip), vehicle: saline + alcohol
  T/C: 100 % of control
dose: 0.8 mg/kg/injection, schedule: Q01DX005 (ip), vehicle: saline + alcohol
  T/C: 100 % of control
dose: 1.6 mg/kg/injection, schedule: Q01DX005 (ip), vehicle: saline + alcohol
  T/C: 98 % of control
dose: 3.2 mg/kg/injection, schedule: Q01DX005 (ip), vehicle: saline + alcohol
  T/C: 104 % of control

## CCCOP(=S)(N1CC1C)N1CC1(C)C (stereo not given)
[19]
  T/C: 122 % of control
[20]
  T/C: 154 % of control
[21]
  T/C: 186 % of control
[5]
  T/C: 113 % of control
[22]
  T/C: 227 % of control
dose: 150.0 mg/kg/injection, schedule: Q04DX003 (ip), vehicle: saline with Tween-80
  T/C: 118 % of control

## CCCCCCC1(O)OC(=O)C(C)=C1C (stereo not given)
[19]
  T/C: 110 % of control
dose: 25.0 mg/kg/injection, schedule: Q04DX003 (ip), vehicle: saline with Tween-80
  T/C: 94 % of control
[20]
  T/C: 94 % of control

## O=C1C2(Cl)C(Cl)=C(Cl)C1(Cl)C1(Cl)C(Cl)=C(Cl)C(=O)C21Cl (stereo not given)
[23]
  T/C: 104 % of control
dose: 20.0 mg/kg/injection, schedule: Q01DX009 (ip), vehicle: saline with Tween-80
  T/C: 104 % of control
dose: 40.0 mg/kg/injection, schedule: Q01DX009 (ip), vehicle: saline with Tween-80
  T/C: 100 % of control

## Nc1nc2c(ncn2C2OC(CO)C(O)C2O)c(=O)n1N (stereo not given)
[11]
  T/C: 100 % of control and 102 % of control
[12]
  T/C: 103 % of control
[9]
  T/C: 101 % of control and 108 % of control
[10]
  T/C: 104 % of control and 113 % of control

## O=Nc1c(=O)[nH]c(O)c2ccccc12
[24]
  T/C: 100 % of control
[13]
  T/C: 107 % of control
[14]
  T/C: 93 % of control

## C[CH2][Sn]([CH2]C)([O][P+](=O)C[Si](C)(C)c1ccccc1)[O][P+](=O)C[Si](C)(C)c1ccccc1 (stereo not given)
dose: 30.0 mg/kg/injection, schedule: Q01DX005 (ip), vehicle: saline with Tween-80
  T/C: 119 % of control
dose: 60.0 mg/kg/injection, schedule: Q01DX005 (ip), vehicle: saline with Tween-80
  T/C: 153 % of control

## C[Si](C)(C)c1c[nH]c(=O)[nH]c1=O
[3]
  T/C: 102 % of control
[5]
  T/C: 98 % of control and 96 % of control
[7]
  T/C: 102 % of control

## Nc1ncnc2c1CCc1ccccc1-2
dose: 100.0 mg/kg/injection, schedule: Q04DX002 (ip), vehicle: saline with Tween-80
  T/C: 107 % of control
dose: 200.0 mg/kg/injection, schedule: Q04DX002 (ip), vehicle: saline with Tween-80
  T/C: 112 % of control

## Cc1cn[nH]c(=O)c1
[3]
  T/C: 99 % of control
[5]
  T/C: 99 % of control
[7]
  T/C: 99 % of control

## CC(=O)CCN1C(C#N)CCCC1C#N (stereo not given)
[25]
  T/C: 102 % of control
[26]
  T/C: 91 % of control
[24]
  T/C: 100 % of control

## C=C(CN(C)C)C(=O)c1ccc(OC2OC(COC(C)=O)C(OC(C)=O)C(OC(C)=O)C2OC(C)=O)cc1 (stereo not given)
[25]
  T/C: 106 % of control
[26]
  T/C: 109 % of control

## C1CC[N-]CC1.C1CC[N-]CC1.C1CC[N-]CC1.C1CC[N-]CC1.O=S(=O)(O)O.[Cu+2]
dose: 10.0 mg/kg/injection, schedule: Q04DX002 (ip), vehicle: saline
  T/C: 100 % of control
dose: 20.0 mg/kg/injection, schedule: Q04DX002 (ip), vehicle: saline
  T/C: 110 % of control

## CN1CCC23c4c5ccc(O)c4OC2C(=NN=C2CCC4(O)C6Cc7ccc(O)c8c7C4(CCN6C)C2O8)CCC3(O)C1C5 (stereo not given)
[26]
  T/C: 96 % of control
[24]
  T/C: 90 % of control

## CCCCCCCCCCCCCCOC(=O)C(N)Cc1ccc(O)cc1 (stereo not given)
[16]
  T/C: 100 % of control
[17]
  T/C: 100 % of control
[18]
  T/C: 100 % of control

## N#Cc1c(F)cccc1N1CCSCC1
[16]
  T/C: 109 % of control
[17]
  T/C: 93 % of control
[18]
  T/C: 89 % of control

## NC(=O)c1ccccn1
dose: 25.0 mg/kg/injection, schedule: Q01DX009 (ip), vehicle: saline
  T/C: 108 % of control
[4]
  T/C: 110 % of control
[6]
  T/C: 99 % of control
[8]
  T/C: 99 % of control

## C1=C(c2ccccc2)N=C(c2nncc3ccccc23)C1(c1ccccc1)c1ccccc1
[22]
  T/C: 101 % of control
dose: 200.0 mg/kg/injection, schedule: Q04DX003 (ip), vehicle: saline with Tween-80
  T/C: 101 % of control
dose: 400.0 mg/kg/injection, schedule: Q04DX003 (ip), vehicle: saline with Tween-80
  T/C: 96 % of control

## CCOC(=O)\C(C#N)=C/C(C)=C/C(C)=C/Nc1ccc([N+](=O)[O-])cc1[N+](=O)[O-]
dose: 50.0 mg/kg/injection, schedule: Q01DX005 (ip), vehicle: Klucel (hydroxypropylcellulose) (HPC)
  T/C: 111 % of control
dose: 100.0 mg/kg/injection, schedule: Q01DX005 (ip), vehicle: Klucel (hydroxypropylcellulose) (HPC)
  T/C: 110 % of control
dose: 200.0 mg/kg/injection, schedule: Q01DX005 (ip), vehicle: Klucel (hydroxypropylcellulose) (HPC)
  T/C: 114 % of control

## CN(C)c1nc(=O)c2ccccc2o1
dose: 15.0 mg/kg/injection, schedule: Q01DX005 (ip), vehicle: saline
  T/C: 100 % of control
dose: 30.0 mg/kg/injection, schedule: Q01DX005 (ip), vehicle: saline
  T/C: 97 % of control
dose: 60.0 mg/kg/injection, schedule: Q01DX005 (ip), vehicle: saline
  T/C: 101 % of control and 95 % of control

## Nc1nc(=S)c2ncn(C3OC(COC(=O)c4ccccc4)C(OC(=O)c4ccccc4)C3OC(=O)c3ccccc3)c2[nH]1 (stereo not given)
dose: 4.4 mg/kg/injection, schedule: Q01DX009 (ip), vehicle: saline with Tween-80
  T/C: 109 % of control
dose: 6.6 mg/kg/injection, schedule: Q01DX009 (ip), vehicle: saline with Tween-80
  T/C: 113 % of control
[23]
  T/C: 122 % of control
dose: 44.0 mg/kg/injection, schedule: Q04DX003 (ip), vehicle: saline with Tween-80
  T/C: 108 % of control
[3]
  T/C: 170 % of control
[21]
  T/C: 116 % of control
[5]
  T/C: 90 % of control

## CC(/C=C/c1ccc2c(c1)OCO2)=N\NC(N)=O
[13]
  T/C: 100 % of control
[14]
  T/C: 97 % of control
[15]
  T/C: 95 % of control

## O=C(c1ccc(Cl)cc1)c1no[n+]([O-])c1C(=O)c1ccc(Cl)cc1
[2]
  T/C: 115 % of control
[3]
  T/C: 111 % of control
[7]
  T/C: 118 % of control
